Assay results published in article PMC13099141, “Antibiotic potentiation and inhibition of cross-resistance in pathogens associated with cystic fibrosis” (eLife, 2026).

Legend:
Assay in all cases: nitrocefin hydrolysis, absorbance at […] nm, sonicated lysate
Type in all cases: biochemical
Details in all cases: 0.4 mM nitrocefin, 100 mM sodium phosphate pH 7.0, 25 °C; dsbA+ E. coli
SMB-1 = target: T1, SMB-1 (Serratia marcescens, UniProt G5ELM3)
T1 construct: full-length class B3 metallo-beta-lactamase, synthetic gene in pDM1, E. coli MC1000 lysate
T1 sequence (G5ELM3 entry or part of it): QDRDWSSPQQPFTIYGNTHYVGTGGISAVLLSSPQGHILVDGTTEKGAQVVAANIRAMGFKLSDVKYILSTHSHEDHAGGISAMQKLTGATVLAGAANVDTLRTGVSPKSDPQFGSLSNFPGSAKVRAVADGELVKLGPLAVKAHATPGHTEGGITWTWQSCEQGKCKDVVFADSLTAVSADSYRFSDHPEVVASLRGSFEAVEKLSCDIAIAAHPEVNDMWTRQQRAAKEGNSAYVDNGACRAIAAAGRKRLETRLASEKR

POM-1 = target: T2, POM-1 (Metapseudomonas otitidis, UniProt E6Y3G9)
T2 construct: gene pom1; full-length class B3 metallo-beta-lactamase from pDM1-blaPOM-1 in E. coli MC1000, lysate; gene from clinical isolate
T2 sequence (E6Y3G9 entry or part of it): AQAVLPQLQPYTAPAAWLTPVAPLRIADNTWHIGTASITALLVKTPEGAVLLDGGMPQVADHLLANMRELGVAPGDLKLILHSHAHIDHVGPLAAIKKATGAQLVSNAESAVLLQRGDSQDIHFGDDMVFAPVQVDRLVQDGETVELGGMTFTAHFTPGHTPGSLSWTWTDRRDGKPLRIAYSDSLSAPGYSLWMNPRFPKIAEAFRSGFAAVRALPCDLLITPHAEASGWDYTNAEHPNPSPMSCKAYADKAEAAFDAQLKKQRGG

AIM-1 = target: T3, AIM-1 (Pseudomonas aeruginosa, UniProt B5DCA0)
T3 construct: gene blaAIM-1; full-length class B3 metallo-beta-lactamase from pDM1-blaAIM-1 in E. coli MC1000, lysate; gene from clinical isolate
T3 sequence (B5DCA0 entry or part of it): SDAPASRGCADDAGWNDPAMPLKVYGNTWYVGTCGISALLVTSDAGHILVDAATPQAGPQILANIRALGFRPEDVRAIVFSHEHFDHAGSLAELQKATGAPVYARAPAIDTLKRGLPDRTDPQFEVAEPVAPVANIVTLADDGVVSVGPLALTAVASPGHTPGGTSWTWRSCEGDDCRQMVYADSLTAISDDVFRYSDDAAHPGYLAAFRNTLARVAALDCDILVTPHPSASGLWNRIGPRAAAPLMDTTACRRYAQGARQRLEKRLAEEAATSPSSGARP

CARB-2 = target: T4, CARB-2 (Pseudomonas aeruginosa, UniProt Q03170)
T4 construct: gene pse1; full-length class A carbenicillinase, synthetic gene in pDM1, E. coli MC1000 lysate
T4 sequence (Q03170 18-288): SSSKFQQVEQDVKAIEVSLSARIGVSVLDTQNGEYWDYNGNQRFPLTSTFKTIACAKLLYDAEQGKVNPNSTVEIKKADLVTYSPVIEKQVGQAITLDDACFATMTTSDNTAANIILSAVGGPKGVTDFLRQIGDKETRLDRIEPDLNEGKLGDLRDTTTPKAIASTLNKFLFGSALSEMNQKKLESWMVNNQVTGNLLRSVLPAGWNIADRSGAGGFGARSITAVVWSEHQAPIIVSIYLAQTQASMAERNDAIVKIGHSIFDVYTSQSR

BEL-1 = target: T5, BEL-1 (Pseudomonas aeruginosa, UniProt Q3SAW3)
T5 construct: gene bla(BEL1); full-length class A beta-lactamase from plasmid pDM1-blaBEL-1 in E. coli MC1000, sonicated lysate; gene from clinical isolate
T5 sequence (Q3SAW3 entry or part of it): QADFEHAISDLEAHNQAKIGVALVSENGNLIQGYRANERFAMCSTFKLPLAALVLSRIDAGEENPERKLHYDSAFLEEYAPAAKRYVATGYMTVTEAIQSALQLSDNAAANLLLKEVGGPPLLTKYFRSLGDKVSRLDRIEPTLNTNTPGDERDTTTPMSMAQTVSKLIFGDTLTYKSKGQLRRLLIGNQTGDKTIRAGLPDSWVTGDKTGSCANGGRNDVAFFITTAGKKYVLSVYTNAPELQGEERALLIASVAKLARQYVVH

OXA-50 = target: T6, OXA-50 (Pseudomonas aeruginosa, UniProt G3XCV9)
T6 construct: gene PA5514; full-length class D beta-lactamase from pDM1-blaOXA-50 in E. coli MC1000, lysate; gene from clinical isolate
T6 sequence (G3XCV9 entry or part of it): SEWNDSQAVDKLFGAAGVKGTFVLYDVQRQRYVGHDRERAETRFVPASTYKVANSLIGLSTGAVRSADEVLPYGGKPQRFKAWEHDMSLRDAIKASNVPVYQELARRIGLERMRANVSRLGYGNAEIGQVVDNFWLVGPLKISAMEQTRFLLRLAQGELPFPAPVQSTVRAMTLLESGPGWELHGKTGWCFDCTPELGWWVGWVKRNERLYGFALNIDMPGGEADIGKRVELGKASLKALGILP

In the case of `O=C(Cc1cccs1)N[C@@H]1C(=O)N2C(C(=O)O)=C(/C=C/c3ccc([N+](=O)[O-])cc3[N+](=O)[O-])CS[C@H]12` [nitrocefin], the “nitrocefin hydrolysis, absorbance at 490 nm, sonicated lysate” value (“nitrocefin hydrolysis, absorbance” below) (SMB-1) is reported as “The hydrolytic activities of both tested β-lactamases are significantly reduced in the absence of DsbA”, the “nitrocefin hydrolysis, absorbance” value (POM-1) is reported as “The hydrolytic activities of both tested β-lactamases are significantly reduced in the absence of DsbA” and the “nitrocefin hydrolysis, absorbance” value (AIM-1) is reported as “The hydrolysis of the chromogenic β-lactam nitrocefin by cysteine-containing β-lactamases is impaired”. The “nitrocefin hydrolysis, absorbance” value (CARB-2) was “The hydrolysis of the chromogenic β-lactam nitrocefin by cysteine-containing β-lactamases is impaired”, the “nitrocefin hydrolysis, absorbance” value (BEL-1) was “The hydrolysis of the chromogenic β-lactam nitrocefin by cysteine-containing β-lactamases is impaired” and the “nitrocefin hydrolysis, absorbance” value (OXA-50) was “The hydrolysis of the chromogenic β-lactam nitrocefin by cysteine-containing β-lactamases is impaired”.
